In patent EP4737445A1, “NOVEL SATURATED HETEROCYCLE-SUBSTITUTED HETEROARYL-CARBONOHYDRAZONOYL DICYANIDE COMPOUND AND USE THEREOF” (Korea Institute of Science and Technology, priority 2023, dated 2025):

What was measured:
CYP2C9 = molecular target: T1, CYP2C9 (Homo sapiens, UniProt P11712); assay: CYP isoenzyme activity inhibition in human liver microsomes, CYP2C9; assay type: in vitro ADME; details: 10 µM compound; human liver microsomes 0.25 mg/mL; relative to control without compound
T1 construct: human liver microsomes (0.25 mg/mL); from tissue; host or cells: human liver microsomes
T1 sequence (P11712 whole entry): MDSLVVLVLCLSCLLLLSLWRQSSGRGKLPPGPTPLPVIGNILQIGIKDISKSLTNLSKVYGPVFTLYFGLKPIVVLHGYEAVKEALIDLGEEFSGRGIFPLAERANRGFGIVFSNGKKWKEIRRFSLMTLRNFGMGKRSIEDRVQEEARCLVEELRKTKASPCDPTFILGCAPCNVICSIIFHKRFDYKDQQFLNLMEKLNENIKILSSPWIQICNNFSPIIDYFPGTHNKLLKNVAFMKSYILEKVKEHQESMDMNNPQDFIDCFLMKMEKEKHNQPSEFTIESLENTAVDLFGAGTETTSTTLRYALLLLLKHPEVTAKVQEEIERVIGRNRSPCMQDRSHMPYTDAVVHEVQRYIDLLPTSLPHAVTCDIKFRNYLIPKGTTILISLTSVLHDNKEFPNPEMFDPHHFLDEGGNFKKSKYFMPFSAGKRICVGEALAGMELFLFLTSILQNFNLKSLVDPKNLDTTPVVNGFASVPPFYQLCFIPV
Experimental: (§1) The CYP isoenzyme activity inhibitory effect by the compounds prepared according to Examples 1 to 46 was confirmed. Specifically, human liver microsomes (0.25 mg/mL), 0.1 M phosphate buffer solution (pH 7.4), a substrate drug cocktail of five drug metabolizing enzymes (Phenacetin 50 µM, Diclofenac 10 µM, S-mephenytoin 100 µM, Dextromethorphan 5 µM, and Midazolam 2.5 µM), and the compounds were added at concentrations of 0 or 10 µM, respectively, and pre-incubated at 37°C for 5 minutes, and then NADPH generation system solution was added and incubated at 37°C for an additional 15 minutes. Thereafter, an acetonitrile solution containing an internal standard (Terfenadine) was added to terminate the reaction, and after centrifugation for 5 minutes (14,000 rpm, 4°C), the supernatant was injected into an LC-MS/MS system to simultaneously analyze the metabolites of the substrate drugs, thereby evaluating the drug metabolizing enzyme inhibitory activity.
(§2) The metabolites of each CYP isoenzyme marker drug generated through the reaction were analyzed using a Shimadzu Nexera XR system and TSQ vantage (Thermo). A Kinetex C18 (2.1 × 100 mm, 2.6 µm, particle size; Phenomenex, USA) was used as the HPLC column, and (A) distilled water containing 0.1% formic acid and (B) acetonitrile containing 0.1% formic acid were used as mobile phases, and a gradient program as shown in Table 6 below was applied.
(§3) The generated metabolites were quantified using MRM (Multiple Reaction Monitoring) quantitative mode, and Xcalibur (version 1.6.1) was used for data analysis. To show the CYP isoenzyme activity inhibitory effect of the novel compounds prepared according to the Examples of the disclosure, the % activity of CYP isoenzymes relative to the control group without compound addition is shown in Table 6 below. Additionally, to confirm the difference in effect according to substituents, Comparative Compounds 1 and 5, which are two compounds that share a similar parent nucleus structure with Compounds 1 to 46 of the disclosure while Cy is substituted with aromatic heteroaryl instead of saturated heterocyclyl, were selected as comparative compounds and their activities are shown together.

[1] = Liver microsomal stability, rat; assay type: in vitro ADME; details: 1 µM compound; 0.5 mg/mL microsomes; NADPH; 30 minutes at 37°C
Experimental: (§4) Liver microsomal stability by the compounds prepared according to Examples 1 to 46 was confirmed. Specifically, four types of liver microsomes (human, dog, rat, and mouse each at 0.5 mg/mL), 0.1 M phosphate buffer solution (pH 7.4), and the compounds at 1 µM concentration were added and pre-incubated at 37°C for 5 minutes, and then NADPH generation system solution was added and incubated at 37°C for an additional 30 minutes. Thereafter, an acetonitrile solution containing an internal standard (chloropropamide) was added to terminate the reaction, and after centrifugation for 5 minutes (14,000 rpm, 4°C), the supernatant was injected into an LC-MS/MS system to analyze the substrate drug, thereby evaluating the metabolic stability of 8 compounds.
(§5) The amount of remaining substrate through the reaction was analyzed using a Shimadzu Nexera XR system and TSQ vantage (Thermo). A Kinetex XB-C18 (2.1 × 100 mm, 2.6 µm, particle size; Phenomenex, USA) was used as the HPLC column, and (A) distilled water containing 0.1% formic acid and (B) acetonitrile containing 0.1% formic acid were used as mobile phases. Analyst software (version 1.6.3) and Xcalibur (version 1.6.1) were used for data analysis. The calculated results are shown in Table 5 below: Liver microsomal stability data of novel compounds from […] (human, rat, and mouse).

CYP2C19 = molecular target: T2, CYP2C19 (Homo sapiens, UniProt P33261); assay: CYP isoenzyme activity inhibition in human liver microsomes, CYP2C19; assay type: in vitro ADME; details: 10 µM compound; human liver microsomes 0.25 mg/mL; relative to control without compound
T2 construct: human liver microsomes (0.25 mg/mL); from tissue; host or cells: human liver microsomes
T2 sequence (P33261 whole entry): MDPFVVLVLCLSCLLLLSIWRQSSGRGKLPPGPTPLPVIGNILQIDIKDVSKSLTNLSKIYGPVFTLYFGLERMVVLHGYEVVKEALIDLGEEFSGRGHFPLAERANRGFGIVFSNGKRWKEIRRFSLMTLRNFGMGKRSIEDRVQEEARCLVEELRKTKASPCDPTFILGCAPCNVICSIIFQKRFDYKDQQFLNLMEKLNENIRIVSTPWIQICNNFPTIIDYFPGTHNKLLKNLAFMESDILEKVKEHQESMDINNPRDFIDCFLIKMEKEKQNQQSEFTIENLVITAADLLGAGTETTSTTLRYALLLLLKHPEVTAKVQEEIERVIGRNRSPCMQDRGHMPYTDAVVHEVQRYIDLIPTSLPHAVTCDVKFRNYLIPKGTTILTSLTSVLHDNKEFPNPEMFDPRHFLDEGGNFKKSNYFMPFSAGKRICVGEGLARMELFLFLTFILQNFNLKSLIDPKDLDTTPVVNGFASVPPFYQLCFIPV
Experimental: as §1, §2, §3

TDP-43 BiFC cells = assay: Cell viability (stained nuclei count) in TDP-43-BiFC cells; assay type: cell-based; details: Forskolin-only group = 100%
How it was run: (§6)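 Forskolin (30 µM) co-treated with compound (screen 3 and 10 µM; dose-response 0.003–10 µM) for 48 h. BiFC fluorescence normalised to Forskolin-only (100% aggregation) minus untreated; viability from Hoechst-stained nuclei count vs Forskolin-only. IC50 by nonlinear regression.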

[2] = Liver microsomal stability, mouse; assay type: in vitro ADME; details: 1 µM compound; 0.5 mg/mL microsomes; NADPH; 30 minutes at 37°C
Experimental: as §4, §5

CYP2D6 = molecular target: T3, CYP2D6 (Homo sapiens, UniProt P10635); assay: CYP isoenzyme activity inhibition in human liver microsomes, CYP2D6; assay type: in vitro ADME; details: 10 µM compound; human liver microsomes 0.25 mg/mL; relative to control without compound
T3 construct: human liver microsomes (0.25 mg/mL); from tissue; host or cells: human liver microsomes
T3 sequence (P10635 whole entry): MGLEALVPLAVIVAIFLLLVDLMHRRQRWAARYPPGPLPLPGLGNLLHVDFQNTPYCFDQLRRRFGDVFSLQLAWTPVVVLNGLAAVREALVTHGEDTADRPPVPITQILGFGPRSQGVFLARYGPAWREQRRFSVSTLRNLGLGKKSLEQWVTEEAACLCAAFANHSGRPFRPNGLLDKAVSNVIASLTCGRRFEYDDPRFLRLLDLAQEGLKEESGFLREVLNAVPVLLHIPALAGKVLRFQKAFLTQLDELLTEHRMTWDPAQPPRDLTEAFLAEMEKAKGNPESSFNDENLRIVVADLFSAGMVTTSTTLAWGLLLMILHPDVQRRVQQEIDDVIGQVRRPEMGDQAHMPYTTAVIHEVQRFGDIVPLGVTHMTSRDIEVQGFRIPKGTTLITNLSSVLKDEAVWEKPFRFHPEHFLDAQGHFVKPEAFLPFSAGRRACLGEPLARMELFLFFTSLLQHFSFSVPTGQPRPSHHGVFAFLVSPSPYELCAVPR
Experimental: as §1, §2, §3

CYP3A4 = molecular target: T4, CYP3A4 (Homo sapiens, UniProt P08684); assay: CYP isoenzyme activity inhibition in human liver microsomes, CYP3A4; assay type: in vitro ADME; details: 10 µM compound; human liver microsomes 0.25 mg/mL; relative to control without compound
T4 construct: human liver microsomes (0.25 mg/mL); from tissue; host or cells: human liver microsomes
T4 sequence (P08684 whole entry): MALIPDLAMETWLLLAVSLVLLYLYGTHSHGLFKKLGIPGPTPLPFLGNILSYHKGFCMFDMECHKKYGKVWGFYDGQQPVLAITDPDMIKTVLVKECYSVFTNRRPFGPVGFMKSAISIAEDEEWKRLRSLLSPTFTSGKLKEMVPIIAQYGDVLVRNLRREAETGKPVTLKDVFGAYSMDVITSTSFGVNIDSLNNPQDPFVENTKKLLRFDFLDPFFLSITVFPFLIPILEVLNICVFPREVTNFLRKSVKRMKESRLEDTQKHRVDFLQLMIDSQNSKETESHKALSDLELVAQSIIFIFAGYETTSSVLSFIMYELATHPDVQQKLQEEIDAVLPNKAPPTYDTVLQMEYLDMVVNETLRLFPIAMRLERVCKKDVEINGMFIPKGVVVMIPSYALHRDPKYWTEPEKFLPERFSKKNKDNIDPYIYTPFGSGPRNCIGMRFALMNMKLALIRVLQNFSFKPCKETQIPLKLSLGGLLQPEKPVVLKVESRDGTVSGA
Experimental: as §1, §2, §3

TDP-43 protein = molecular target: T5, TDP-43 protein (Homo sapiens, UniProt Q13148); assay: TDP-43 aggregation inhibition in TDP-43-BiFC cell model (Forskolin-induced); assay type: cell-based; details: for inhibition at 3 µM: read-out: TDP-43 protein aggregation inhibitory effect: Aggregation inhibitory effect (%) (@3 uM)
T5 construct: BiFC fluorescent-protein fragments (two complementary halves); expressed in transfected cells
T5 sequence (Q13148 whole entry, the tested form may be a part): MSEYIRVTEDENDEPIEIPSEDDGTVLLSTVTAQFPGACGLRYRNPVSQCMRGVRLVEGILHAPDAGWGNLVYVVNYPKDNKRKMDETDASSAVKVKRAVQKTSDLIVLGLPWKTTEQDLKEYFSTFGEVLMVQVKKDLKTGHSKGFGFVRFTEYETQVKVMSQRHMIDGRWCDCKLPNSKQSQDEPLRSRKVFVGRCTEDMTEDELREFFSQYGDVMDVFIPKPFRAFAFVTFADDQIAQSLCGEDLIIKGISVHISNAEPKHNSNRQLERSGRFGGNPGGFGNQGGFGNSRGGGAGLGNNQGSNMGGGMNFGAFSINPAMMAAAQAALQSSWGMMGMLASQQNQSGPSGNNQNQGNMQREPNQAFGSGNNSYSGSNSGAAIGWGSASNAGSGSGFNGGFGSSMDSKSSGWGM
How it was run: as §6

Compound	CYP2C9 (% activity) (CYP2C9)	Rat microsomes (% remaining) [1]	CYP2C19 (% activity) (CYP2C19)	Cell viability (%) (@ 3 uM) (TDP-43 BiFC cells)	Mouse microsomes (% remaining) [2]	CYP2D6 (% activity) (CYP2D6)	CYP3A4 (% activity) (CYP3A4)	IC50 (TDP-43 protein)	inhibition at 3 µM (TDP-43 protein)
N#CC(C#N)=NNc1ccc2nc(N3C4CCC3COC4)oc2c1 [Compound 20, (2-(3-oxa-8-azabicyclo[3.2.1]octan-8-yl)benzo[d]oxazol-6-yl)carbonohydrazonoyl dicyanide]	48 % activity	82.9 % remaining	51.8 % activity	75.4%	95.4 % remaining	57.5 % activity	55.4 % activity	140 nM	91.7%
N#CC(C#N)=NNc1ccc2nc(NC(=O)N3CCOCC3)sc2c1 [Compound 38, (2-(morpholine-4-carboxamido)benzo[d]thiazol-6-yl)carbonohydrazonoyl dicyanide]	73.6 % activity	96.0 % remaining	80 % activity	111.9%	86.1 % remaining	95.7 % activity	86.7 % activity		49.6%
N#CC(C#N)=NNc1ccc2oc(N3CCOCC3)nc2c1 [Compound 3, (2-morpholinobenzo[d]oxazol-5-yl)carbonohydrazonoyl dicyanide]	> 100 % activity	73.0 % remaining	> 100 % activity	102.3%	80.6 % remaining	> 100 % activity	> 100 % activity		79.6%
CCn1c(N2CCOCC2)nc2ccc(NN=C(C#N)C#N)cc21 [Compound 32, (1-ethyl-2-morpholino-1H-benzo[d]imidazol-6-yl)carbonohydrazonoyl dicyanide]	65.1 % activity	81.7 % remaining	77.1 % activity	59.7%	92.3 % remaining	92.1 % activity	73 % activity	99 nM	95.4%
N#CC(C#N)=NNc1ccc2nc(N3CCOCC3)sc2c1 [Compound 2, (2-morpholinobenzo[d]thiazol-6-yl)carbonohydrazonoyl dicyanide]	95.1 % activity	55.2 % remaining	96.7 % activity	87.5%	94.10 % remaining	> 100 % activity	95.7 % activity		100%
CC1CN(C(=O)Nc2nc3ccc(NN=C(C#N)C#N)cc3s2)CC(C)O1 (centres unmarked) [Compound 39, (2-(2,6-dimethylmorpholine-4-carboxamido)benzo[d]thiazol-6-yl)carbonohydrazonoyl dicyanide]	42.9 % activity	82.3 % remaining	78.6 % activity	117.7%	88.4 % remaining	85.9 % activity	56.5 % activity		58.7%
CC1CN(c2nc3ccc(NN=C(C#N)C#N)cc3o2)CCO1 (centres unmarked) [Compound 15, (2-(2-methylmorpholino)benzo[d]oxazol-6-yl)carbonohydrazonoyl dicyanide]	88.6 % activity	60 % remaining	87.9 % activity	105.2%	> 100 % remaining	> 100 % activity	87.3 % activity		97.5%
CN1CCN(c2nc3ccc(NN=C(C#N)C#N)cc3s2)CC1 [Compound 8, (2-(4-methylpiperazin-1-yl)benzo[d]thiazol-6-yl)carbonohydrazonoyl dicyanide]	> 100 % activity	76.6 % remaining	> 100 % activity	83.0%	77.4 % remaining	> 100 % activity	95 % activity		100%
CC1CN(c2nc3ccc(NN=C(C#N)C#N)cc3s2)CC(C)O1 (centres unmarked) [Compound 10, (2-(2,6-dimethylmorpholino)benzo[d]thiazol-6-yl)carbonohydrazonoyl dicyanide]	76.8 % activity	84.8 % remaining	83.6 % activity	83.8%	87.3 % remaining	93.8 % activity	74.5 % activity		100%
CC(=O)N1CCN(c2nc3ccc(NN=C(C#N)C#N)cc3o2)CC1 [Compound 31, (2-(4-acetylpiperazin-1-yl)benzo[d]oxazol-6-yl)carbonohydrazonoyl dicyanide]	88.8 % activity	88.3 % remaining	90.8 % activity	82.7%	> 100 % remaining	93.3 % activity	88.3 % activity		41.4%
COC1CCN(c2nc3ccc(NN=C(C#N)C#N)cc3s2)CC1 [Compound 9, (2-(4-methoxypiperidin-1-yl)benzo[d]thiazol-6-yl)carbonohydrazonoyl dicyanide]	60.7 % activity	17.7 % remaining	86.9 % activity	76.2%	83.8 % remaining	> 100 % activity	66.1 % activity		100%
N#CC(C#N)=NNc1ccc2sc(N3CCOCC3)nc2c1 [Compound 1, (2-morpholinobenzo[d]thiazol-5-yl)carbonohydrazonoyl dicyanide]	82.5 % activity	2.1 % remaining	> 100 % activity	87.5%	49.3 % remaining	> 100 % activity	95.5 % activity		78.1%
N#CC(C#N)=NNc1ccc2nc(N3CC4CCC(C3)O4)sc2c1 [Compound 23, (2-(8-oxa-3-azabicyclo[3.2.1]octan-3-yl)benzo[d]thiazol-6-yl)carbonohydrazonoyl dicyanide]	68.5 % activity	69.8 % remaining	69.6 % activity	81.1%	86.6 % remaining	71.5 % activity	71.7 % activity	107 nM	99.2%
